# Results published in US20160310481A1, “LAQUINIMOD FOR TREATMENT OF CANNABINOID RECEPTOR TYPE 1(CB1) MEDIATED DISORDERS” (Teva Pharmaceutical Industries, Ltd., priority 2012, published 2016).
# Like-named read-outs stand apart in the source and are kept apart here.
# Key:
# cannabinoid CB1 receptor = cannabinoid CB1 receptor (Mus musculus, UniProt P47746); details: HU210 1 μM
# Method: Recordings were performed between 25 and 35 dpi. Mice were killed by cervical dislocation under halothane anaesthesia, and corticostriatal coronal slices (200 μm) were prepared from fresh tissue blocks of the brain with the use of a vibratome (Centonze et al., 2007, 2009; Rossi et al., 2010a,b). A single slice was then transferred to a recording chamber and submerged in a continuously flowing artificial CSF (ACSF) (34° C., 2-3 ml/min) gassed with 95% O2-5% CO2. The composition of the control ACSF was (in mM): 126 NaCl, 2.5 KCl, 1.2 MgCl2, 1.2 NaH2PO4, 2.4 CaCl2, 11 Glucose, 25 NaHCO3. Recording pipettes were advanced towards individual striatal cells in the slice under positive pressure and visual control (WinVision 2000, Delta Sistemi, Italy) and, on contact, tight GΩ seals were made by applying negative pressure. The membrane patch was then ruptured by suction and membrane current and potential monitored using an Axopatch 1D patch clamp amplifier (Axon Instruments, Foster City, Calif., USA). Whole-cell access resistances measured in voltage clamp were in the range of 5-20 MΩ. Whole-cell patch clamp recordings were made with borosilicate glass pipettes (1.8 mm o.d.; 2-3 MΩ), in voltage-clamp mode, at the holding potential (HP) of −80 mV. […] Synaptic events were stored by using P-CLAMP (Axon Instruments) and analyzed off line on a personal computer with Mini Analysis 5.1 (Synaptosoft, Leonia, N.J., USA) software. […] Offline analysis was performed on spontaneous and miniature synaptic events recorded during fixed time epochs (3-5 min, 3-6 samplings), sampled every 5 or 10 minutes. […]
# For data presented as mean ±SE, n indicates the number of cells. One to six cells per animal were recorded. […] Multiple comparisons were analysed by one-way ANOVA followed by Tukey's HSD test. Comparisons between two groups were analysed by paired or unpaired Student's t-test. […]
# EAE mice = assay: EAE induction and disease evaluation, preventive daily s.c. LQ treatment; format: in vivo, C57BL/6 mice; details: preventive treatment 0-26 dpi, daily s.c. 1-25 mg/kg
# Method: Female C57BL/6 mice at 6-8 weeks of age were purchased from Charles River (Calco, Milan, Italy) and housed in pathogen-free conditions. All procedures involving animals were performed according to the guidelines of the San Raffaele Scientific Institute Institutional Animal Care and Use Committee.
# EAE was induced by immunization with 3 subcutaneous injection of 100 μl each, containing a total of 200 μg of myelin oligodendrocyte glycoprotein (MOG) peptide 35-55 (Multiple Peptide System) in incomplete Freund's adjuvant and 8 mg/ml of Mycobacterium tuberculosis (strain H37Ra; Difco). Pertussis toxin (Sigma) (500 ng) was injected on the day of the immunization and again two days later. Body weight and clinical score (0=healthy; 1=limp tail; 2=ataxia and/or paresis of hindlimbs; 3=paralysis of hindlimbs and/or paresis of forelimbs; 4=tetraparalysis; 5=moribund or death) were recorded daily.
# EAE mice were treated once daily by subcutaneous (s.c.) injection of LQ (supplied by Teva Pharmaceutical Industries, Netanya, Israel) (thereafter referred as LQ-EAE). LQ was administered at different doses (from 1 to 25 mg/kg) starting the same day of immunization up to 26 days post immunization (d.p.i.). Sham treated EAE mice (thereafter referred as untreated-EAE) and healthy control mice (thereafter referred as HC) were used as controls. […]
# spinal cord of EAE mice = assay: Histological evaluation of spinal cord of EAE mice; format: in vivo, C57BL/6 mice
# Method: At least 5 mice per group were transcardially perfused through the left cardiac ventricle with saline, plus EDTA 0.5 M for 5-10 min followed by fixation with cold 4% paraformaldehyde (PFA) (Sigma, St Louis, Mo.) in 0.1 M phosphate buffer (pH 7.4). Subsequently, spinal cords and brains were carefully dissected out and post-fixed in 4% PFA for 3-4 h and processed for paraffin embedding. The quantification of neurological damage was performed on 5 µm paraffin CNS sections obtained from HC, LQ-EAE mice, and untreated-EAE mice. Three different staining were used to detect inflammatory infiltrates (H&E), demyelination (Luxol fast blue) and axonal damage (Bielshowsky). Imunohistochemistry for CD3 (pan-T cell marker, Serotec Ltd, Oxford, UK), and BS-I isolectin B4 (biotinilated from Sigma, St Louis, Mo.) was performed to investigate T cells and macrophages within the inflammatory cellular infiltrates, respectively. […] Neuropathological findings were quantified on an average of 18-20 complete cross-sections of spinal cord per mouse taken at 8 different levels of the spinal cord. The number of perivascular inflammatory infiltrates were calculated and expressed as the numbers of inflammatory infiltrates per mm^2, demyelinated areas and axonal loss were expressed as percentage of damaged area per mm2. The number of T cells and macrophages lining within the subarachnoid space or infiltrating the CNS parenchyma was calculated and expressed as the number of cells per mm2. An Olympus microscope for the acquisitions of pictures was used. Statistical analysis was performed using the unpaired Student's t-test.
# [1] = system: striatal glutamatergic transmission; assay: Whole-cell patch clamp of striatal neurons from EAE mice: glutamate-mediated sEPSCs; format: in vivo; details: LQ-EAE mice 25 mg/kg, n=20; untreated-EAE 4.0±0.2, HC 2.7±0.2
# [2] = system: GABAergic transmission in control striatal neurons; assay: Bath application on corticostriatal slices of wild type mice: sIPSCs (basal GABAergic transmission); format: cell-based
# [3] = system: glutamatergic transmission in control striatal neurons; assay: Bath application on corticostriatal slices of wild type mice: sEPSCs (basal glutamatergic transmission); format: cell-based
# rat model of ADHD = assay: Rat model of ADHD; format: in vivo; details: compared to control rats
# Method: Laqunimod is tested in a rat model of ADHD.
# DAT-CI mice = assay: Mouse model of ADHD (DAT-CI mice); format: in vivo
# Text: DAT cocaine-insensitive (DAT-CI) mice have a triple point-mutation in the cocaine-binding site of the dopamine […] (DAT) gene. The behavior of DAT-CI mice mimics human ADHD behavior. As previously described, the sensitivity of CB1 receptors controlling GABA-mediated synaptic currents in the striatum of DAT-CI mice was completely lost. ([…] et al., 2011).
# [4] = system: human subjects diagnosed with ADHD; assay: Human ADHD trial; format: in vivo; details: compared to the control group
# Method: Laquinimod is administered to human subjects diagnosed with ADHD.
# [5] = LQ-EAE vs control, dose dependent
# [6] = LQ 1 μM, 12 minutes, compared to pre-drug values, first mention
# [7] = LQ 1 μM bath application, control neurons
# [8] = LQ 1 μM, 12 minutes, control neurons, compared to pre-drug values, second mention
# cannabinoid CB1 receptor, sequence (P47746 whole entry): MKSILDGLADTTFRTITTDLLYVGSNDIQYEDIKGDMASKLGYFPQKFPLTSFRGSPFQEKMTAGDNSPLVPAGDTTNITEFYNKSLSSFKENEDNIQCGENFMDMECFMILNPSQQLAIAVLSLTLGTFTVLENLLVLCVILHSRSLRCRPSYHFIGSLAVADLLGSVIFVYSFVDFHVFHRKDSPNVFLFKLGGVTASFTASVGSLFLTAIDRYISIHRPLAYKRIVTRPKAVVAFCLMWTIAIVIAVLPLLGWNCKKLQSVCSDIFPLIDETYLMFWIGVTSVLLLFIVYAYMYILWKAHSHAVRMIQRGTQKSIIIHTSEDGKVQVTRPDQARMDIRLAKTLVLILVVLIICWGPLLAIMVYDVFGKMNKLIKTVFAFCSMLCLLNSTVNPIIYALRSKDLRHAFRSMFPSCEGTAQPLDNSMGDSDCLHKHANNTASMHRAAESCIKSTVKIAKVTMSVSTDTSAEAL
smiles,measurement,setting,value
CCCCCCC(C)(C)c1cc(O)c2c(c1)OC(C)(C)[C@@H]1CC=C(CO)C[C@@H]21 [HU210],"sIPSC frequency during HU210, respect to pre-drug values","cannabinoid CB1 receptor; control slices, 10 min, n=8",76±3%
same,"sIPSC frequency during HU210, respect to pre-drug values","cannabinoid CB1 receptor; striatal neurons from untreated EAE mice, n=10",101±3%
"CCN(C(=O)c1c(O)c2c(Cl)cccc2n(C)c1=O)c1ccccc1 [LQ, N-ethyl-N-phenyl-1,2-dihydro-4-hydroxy-5-chloro-1-methyl-2-oxoquinoline-3-carboxamide]",effect on EAE clinical course,EAE mice,significantly suppresses EAE in a dose-dependent manner
same,Demyelination,spinal cord of EAE mice; [5],reduced
same,axonal loss,spinal cord of EAE mice; [5],reduced
same,number of T lymphocytes (CD3+) in cellular infiltrates,spinal cord of EAE mice; LQ-EAE vs untreated-EAE mice,diminished number
same,number of microglia/macrophages (Isolectin B4+) in cellular infiltrates,spinal cord of EAE mice; LQ-EAE vs untreated-EAE mice,diminished number
same,numbers of infiltrates within spinal cord sections,spinal cord of EAE mice; LQ-EAE vs untreated-EAE mice,reduction in numbers of infiltrates
same,frequency of sEPSCs,[1],3.4±0.4 Hz
same,amplitude of sIPSCs,[2]; LQ 1 μM bath application,failed to alter
same,frequency of sIPSCs,[2]; LQ 1 μM bath application,failed to alter
same,sIPSC decay time,[2]; [6],98±3%
same,sIPSC rise time,[2]; [6],101±2%
same,amplitude of sEPSCs,[3]; [7],failed to alter
same,frequency of sEPSCs,[3]; [7],failed to alter
same,sIPSC decay time,[3]; [8],101±2%
same,sIPSC rise time,[3]; [8],99±1%
same,sEPSC amplitude,"[3]; LQ 10-30 μM bath application, control neurons, n=10",reducing sEPSC amplitude
same,"frequency of sEPSCs, respect to pre-drug values","[3]; highest concentration of LQ, n=7",83±2.7%
same,result in rat model of ADHD,rat model of ADHD,positive results
same,sensitivity of CB1 receptors to CB1 receptor agonist HU210,DAT-CI mice; DAT-CI mice,restored sensitivity
same,locomotor activity,DAT-CI mice; DAT-CI mice compared to control mice,decreased locomotor activity
same,result in human ADHD subjects,[4],"alleviation of inattention, hyperactivity or impulsivity"
same,"sIPSC frequency during HU210, respect to pre-drug values","cannabinoid CB1 receptor; striatal neurons from LQ-EAE mice (25 mg/kg), n=10",75±3%
N#Cc1cc2[nH]c(=O)c(=O)[nH]c2cc1[N+](=O)[O-] [CNQX],blockade of sEPSCs,"[3]; recorded in the presence of LQ, n=5, CNQX 10 μM",fully blocked
